Measurements: patent US20260224584A1 (priority 2023, published 2026)
Where a name gives a salt, the structure may show the parent alone.

System: Human WB (90%) CD69
Assay: Human WB (90%) CD69
Assay type: cell-based
Settings: read-out: Human WB (90%) CD69 IC50 (nM); human whole blood (90%), CD69 readout

First: Cc1ccc(Nc2cc(-c3ccc(N4CCN(C(C)C)CC4)cc3)cc3c2nc(C)n3C)nn1 [Example 24, 6-(4-(4-isopropylpiperazin-1-yl)phenyl)-1,2-dimethyl-N-(6-methylpyridazin-3-yl)-1H-benzo[d]imidazol-4-amine]
Second: CC(C)N1CCN(c2ccc(-c3cc(NCc4ccc(S(C)(=O)=O)cc4)c4nc(-c5ccc(S(C)(=O)=O)cc5)n(C)c4c3)cc2)CC1 [Example 56, 6-(4-(4-isopropylpiperazin-1-yl)phenyl)-1-methyl-N-(4-(methylsulfonyl)benzyl)-2-(4-(methylsulfonyl)phenyl)-1H-benzo[d]imidazol-4-amine, TFA]
The IC50 of the first is 2.7-fold lower: 600 nM for the first, 1640 nM for the second. The first is the more potent here.

With CC(C)N1CCN(c2ccc(-c3cc(N4CCN(C(C)C)CC4)c4nc(-c5ccc(S(C)(=O)=O)cc5)n(C)c4c3)cc2)CC1 [Example 1, 4-(4-isopropylpiperazin-1-yl)-6-(4-(4-isopropylpiperazin-1-yl)phenyl)-1-methyl-2-(4-(methylsulfonyl)phenyl)-1H-benzo[d]imidazole] the IC50 was 77 nM.
